From publication PMC9748900, “Unconventional isoquinoline-based SERMs elicit fulvestrant-like transcriptional programs in ER+ breast cancer cells” (NPJ Breast Cancer, 2022)
“Also recorded” adds a separate entry of the source. Read-outs that look alike come from different tables or passages of the source. Values belong to the compound of their own block, whether it stands above or below them.

What was measured:
[1] = system: Ishikawa endometrial cells; assay: Alkaline phosphatase (AP) assay in Ishikawa cells; assay type: cell-based, human; details: 72 h; for AP1 Induction: 1 nM E2 or 1 μM compound, absorbance at 405 nm, mean + std. dev., n = 3-9
Description: SERM enhancement of ERα accumulation in breast cancer cells correlates with uterotrophic activities[22],[30]. Despite the inclusion of side arms from known SERDs, most T6Is appeared SERM-like in breast cancer cells as they increased ERα levels. To measure the SERM-agonist activities of the T6Is, we employed an AP activity assay in Ishikawa endometrial cells[22],[32],[40]. […] Many T6Is show unexpected AP activities in these cells. […] Therefore, we would expect these SERMs to show a greater induction of AP (Supplementary Fig. 5). […] This difference was significant (p = 0.004) compared to 4OHT, which measured 0.68 ± 0.12 absorbance units. In most studies of SERM-agonist activities, AP assays are combined with increases in uterine wet-weight in vivo[22],[41],[42].
AP assays were performed as described. Briefly, 15,000 Ishikawa cells were seeded into 96-well plates then placed in serum-starved medium for 48–72 h. Cells were treated for three days with veh, hormone, SERM, or SERD. The media was aspirated and the cells were frozen at −80 °C for at least 24 h. Cells were thawed then incubated with p-nitrophenyl phosphate (ThermoFisher) chromogenic AP substrate. After 60 min at 40 °C, absorbance was read at 405 nm on a BioTek Cytation 5 plate reader.

[2] = system: gene expression in T47D breast cancer cells; assay: qPCR gene expression in T47D cells; assay type: cell-based; details: 1 μM + 1 nM E2, 16 h
[3] = system: gene expression in MCF7:WS8 breast cancer cells; assay: qPCR gene expression in MCF7:WS8 cells
[4] = system: T47D breast cancer cells; assay: Cellular proliferation (label-free cell count), T47D; assay type: cell-based; details: 1 nM E2, normalized to vehicle
Procedure: In addition, we used a crystal violet assay to measure the effect of T6I-14-1 on MCF7 viability.
MCF7, MCF7:WS:8, Y537S ESR1 MCF7 and T47D breast cancer cell lines were grown in 96-well dishes at a starting cell count of 1000 cells per well. […] Cells were grown in a BioSpa attached to a BioTek Cytation 5 and were automatically counted every twelve hours for 7–10 days or until the E2-only wells reached confluence. Media was replaced every 4 days and drug was maintained in each media change. Each study was repeated three times with three technical replicates each.

[5] = system: patients with advanced disease with prior hormone therapy; details: compared to standard of care ref 6, cited from earlier work
[6] = molecular target: T1, ERα (Homo sapiens, UniProt P03372); assay: ERE transcriptional reporter gene assay in MCF7 cells; assay type: cell-based; parameters: endogenous in cells; host or cells: MCF7 cells with 3x-ERE-GFP reporter
T1 sequence (P03372 1-595): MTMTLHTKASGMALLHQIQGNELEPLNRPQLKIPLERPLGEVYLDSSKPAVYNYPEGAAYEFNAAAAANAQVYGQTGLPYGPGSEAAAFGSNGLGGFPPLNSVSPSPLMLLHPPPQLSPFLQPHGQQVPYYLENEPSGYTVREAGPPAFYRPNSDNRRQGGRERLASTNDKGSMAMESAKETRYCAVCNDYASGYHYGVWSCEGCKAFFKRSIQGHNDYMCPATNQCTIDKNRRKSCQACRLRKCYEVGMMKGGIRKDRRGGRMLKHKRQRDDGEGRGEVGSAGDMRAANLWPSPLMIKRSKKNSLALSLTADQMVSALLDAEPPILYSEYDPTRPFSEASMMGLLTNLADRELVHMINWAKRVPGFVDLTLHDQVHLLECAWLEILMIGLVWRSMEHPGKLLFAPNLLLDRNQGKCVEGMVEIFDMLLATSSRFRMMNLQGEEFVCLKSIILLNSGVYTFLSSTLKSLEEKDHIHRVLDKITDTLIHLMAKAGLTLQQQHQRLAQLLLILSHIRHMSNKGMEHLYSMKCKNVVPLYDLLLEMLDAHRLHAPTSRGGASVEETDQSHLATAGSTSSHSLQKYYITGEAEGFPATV
Procedure: A cyclopropyl group was used in place of RAD1901’s ethylamine. […] We initially synthesized 4 derivatives comprised of different pharmacophores on the analogous steroidal A ring (Fig. 2d) and used an ERE reporter gene assay in MCF7 breast cancer cells to measure their transcriptional inhibitory activities.
This assay was performed in accordance with a previous report. MCF7 breast cancer cells with a 3x-estrogen response element-green fluorescent protein (GFP) reporter gene construct under a CMV promoter were plated in 96-well dishes at 3000 cells per well. Cells were cultured for 48 h in stripped media that included charcoal stripped fetal bovine serum (FBS). Cells were treated with increasing concentrations of antiestrogen (5 pm to 1 µM) for 24 h. Subsequently, percent GFP-positive cells were imaged using a BioTek Cytation 5 live cell imager. All assays were performed three times with three technical replicates each.

[7] = system: Ishikawa cells; assay: Ishikawa cell count (endometrial proliferation); assay type: cell-based, human; details: 1 nM E2 or 1 μM antiestrogen, 144 h
[8] = system: transcriptome of T47D breast cancer cells; assay: RNA sequencing of T47D cells; assay type: cell-based
Procedure: We next used RNA transcriptomic analysis (RNAseq) to identify differentially affected genes. […] All sequencing runs were performed with three replicates per treatment.
T47D breast cancer cells were grown in 6-well dishes at 50,000 cells per well. […] After 24 h, they were placed in serum-starved media for 48 h. […] RNA was isolated using a Qiagen RNeasy Kit then sent to Novogene for sequencing and bioinformatics analysis.

[9] = molecular target: T1, ERα; assay: In-cell Western of ERα levels in MCF7:WS8 cells; assay type: cell-based; parameters: endogenous in cells; details: MCF7:WS8, 1 μM, 24 h, compared to 4OHT
Description: SERMs and SERDs differentially affect ERα cellular lifetime/accumulation, which correlates with tissue-specific partial agonistic activities. SERMs increase WT ERα lifetime and are partial agonists in the bone and uterine epithelium by maintaining AF-1-dependent transcriptional coactivator recruitment. SERDs induce rapid WT ERα degradation and are pure antagonists[14],[17],[19],[22],[33]. […] We used an in-cell Western approach to measure how a subset of T6Is affected ERα levels in MCF7:WS8 breast cancer cells. […] A live cell halo-tagged ERα assay was then used to measure the impact of an expanded set of T6Is on receptor accumulation in T47D breast cancer cells after 24 h treatment. […] The difference between T6I-14 and 4OHT was not statistically significant in this assay. […] The IC50 values generally trended with observed differences in transcriptional IC50 (Fig. 2), while the effect at maximum dose varied greatly.
In-cell Western analysis was performed in a similar manner as previously described. Briefly, T47D or MCF7:WS8 breast cancer cells were grown in blackout 96-well plates starting at 3000 cells per well. After 24 h, cells were placed in serum-starved media and allowed to acclimate for 48–72 h. Cells were treated with hormone, SERM, or SERD alongside vehicle control for 24 h. […] All data were collected on a LI-COR Odyssey DLx and analyzed using Emperia Studio. […]

[10] = MCF7, 1 nM E2, read-out: Log(IC50) (converted)

SMILES: CCCCN1CCC(COc2ccc(C3c4ccc(O)cc4CC4(CC4)N3C(=O)c3ccccc3)cc2)C1 (stereo not drawn) [T6I-22]
AP1 Induction [1]: 0.55 + 0.06

SMILES: Oc1ccc2c(c1)CC[C@H](c1ccccc1)[C@@H]2c1ccc(OCCN2CCCC2)cc1 [Laso, lasofoxifene]
CDK1 mRNA [2]: slightly upregulated CDK1 | RPS6KL1 mRNA [2]: only slightly enriched | AP1 Induction [1]: 0.51 + 0.16 | AP activity ([1]; 1 μM): 0.51 ± 0.16 absorbance units | cMYC mRNA ([3]; MCF7:WS8, 1 μM + 1 nM E2): upregulated cMYC but it was significantly less (p = 0.02) than T6I-29-1A

SMILES: CCCN1CC(COc2ccc(C3c4ccc(O)cc4CC4(CC4)N3C(=O)c3ccccc3)cc2)C1 (stereo not drawn) [T6I-4]
AP1 Induction [1]: 0.24 + 0.07 | AP induction (in words) ([1]; 1 μM): AP induction similar to a SERD; also recorded: no measurable AP1 activity

SMILES: O=C(c1ccccc1)N1C(c2ccc(OCC3CCN(CCCF)C3)cc2)c2ccc(O)cc2CC12CC2 (stereo not drawn) [T6I-29]
anti-proliferative activity, cell count after 7 days (Fig. 7) [4]: slightly improved efficacy versus propyl alone | AP1 Induction [1]: 0.63 + 0.08 | AP induction (in words) ([1]; 1 μM): greater induction of AP1 compared to its separated chiral species

SMILES: CCCCCN1CCC(COc2ccc(C3c4ccc(O)cc4CC4(CC4)N3C(=O)c3ccccc3)cc2)C1 (stereo not drawn) [T6I-23]
AP1 Induction [1]: 0.44 + 0.08

SMILES: O=C(c1ccccc1)N1C(c2ccc(OCC3CN(CCCCl)C3)cc2)c2ccc(O)cc2CC12CC2 (stereo not drawn) [T6I-4B]
AP1 Induction [1]: 0.61 + 0.10 | AP induction (in words) ([1]; 1 μM): significant induction of AP compared to the propylazetidine-containing T6I-4

SMILES: CCNCCc1ccc(CN(CC)c2cc(OC)ccc2[C@@H]2CCc3cc(O)ccc3C2)cc1 [RAD1901, elacestrant]
CDK1 mRNA [2]: slightly upregulated CDK1 | RPS6KL1 mRNA [2]: only slightly enriched | AP1 Induction [1]: 0.28 + 0.08 | reduced risk of disease progression or death ([5]; all patients): 30% | reduced risk of disease progression or death ([5]; patients with ESR1 mutations, including the Y537S): 45% | CDK1 mRNA ([3]; MCF7:WS8): downregulated its expression

SMILES: O=C(c1ccccc1)N1C(c2ccc(OCC3CN(CCCF)C3)cc2)c2ccc(O)cc2CC12CC2 (stereo not drawn) [T6I-4A]
AP1 Induction [1]: 0.69 + 0.16 | AP induction (in words) ([1]; 1 μM): significant induction of AP compared to the propylazetidine-containing T6I-4

SMILES: CCCN1CCC(CCc2ccc(C3c4ccc(O)cc4CC4(CC4)N3C(=O)c3ccccc3)cc2)C1 (stereo not drawn) [T6I-Me]
AP1 Induction [1]: 0.57 + 0.08

SMILES: CCN1CC(COc2ccc(C3c4ccc(O)cc4CC4(CC4)N3C(=O)c3ccccc3)cc2)C1 (stereo not drawn) [T6I-3]
anti-proliferative activity, cell count after 7 days (Fig. 7) [4]: did not improve anti-proliferative activities | AP1 Induction [1]: 0.34 + 0.07

IC50 [6, 10]: 170 nM
SMILES: O=C(CC(F)(F)F)N1C(c2ccc(OCCN3CCCC3)cc2)c2ccc(O)cc2CC12CC2 (stereo not drawn) [T6I-1C]

SMILES: CC/C(=C(\c1ccc(O)cc1)c1ccc(OCCN(C)C)cc1)c1ccccc1 [4OHT, 4-hydroxytamoxifen, reference compound]
AP1 Induction [1]: 0.67 + 0.12 | AP induction (in words) ([1]; 1 μM): robust stimulation of AP activity | Ishikawa cell count [7]: marginal but insignificant increase to cell count

SMILES: C[C@]12CC[C@@H]3c4ccc(O)cc4CC[C@H]3[C@@H]1CC[C@@H]2O [E2, 17β-estradiol]
SUMO-related differentially expressed genes (RNAseq) [8]: downregulates SUMO1 and upregulates desumoylating enzymes including SENP1 and SENP8 | Ishikawa cell count [7]: robust enhancement of proliferation

SMILES: CCCN1CCC(CNc2ccc(C3c4ccc(O)cc4CC4(CC4)N3C(=O)c3ccccc3)cc2)C1 (stereo not drawn) [T6I-NH]
AP1 Induction [1]: 0.50 + 0.09

ERα levels by in-cell Western [9]: significant enhancement
SMILES: CCCN1CCC(COc2ccc(C3c4ccc(O)cc4CC4(CC4)N3C(=O)c3ccccc3)cc2)C1 (stereo not drawn) [T6I-14]

IC50 [6, 10]: 123 nM | IC50 ([6]; MCF7, 1 nM E2, read-out: anti-transcriptional IC50): ~100 nM
SMILES: O=C(c1ccccc1)N1C(c2ccc(OCCN3CCCC3)cc2)c2ccc(O)cc2CC12CC2 (stereo not drawn) [T6I-1D]

SMILES: CCCN1CCC(CSc2ccc(C3c4ccc(O)cc4CC4(CC4)N3C(=O)c3ccccc3)cc2)C1 (stereo not drawn) [T6I-SH]
AP1 Induction [1]: 0.42 + 0.07
